Patent publication US10988478B1, “Pyrazolo[1,5a]pyrimidine derivatives as IRAK4 modulators” (Genentech, Inc., priority 2015, dated 2021)

Biological target: human IRAK4 (Homo sapiens (Human), UniProt Q9NWZ3)
Assay: IRAK4 kinase inhibition, Transcreener fluorescence polarization ADP assay
Type: biochemical
Conditions: recombinant full-length His6-IRAK4; 125 uM ATP; 90 min; Ki computed using ATP Km 642 uM
Protocol: Compounds were assayed for inhibition of human IRAK4 and IRAK1 catalytic activity using recombinant enzyme produced from insect cells. Full-length IRAK4 protein, carrying an N-terminal His6-Tag, was obtained from Life Technologies (Carlsbad, Calif., USA). The IRAK1 construct was produced internally and was comprised of IRAK1 residues Arg194 to Ser712, preceded by an NH2-terminal His6 tag and the coding sequence for glutathione-S-transferase.

Sequence of human IRAK4 (Q9NWZ3 whole entry): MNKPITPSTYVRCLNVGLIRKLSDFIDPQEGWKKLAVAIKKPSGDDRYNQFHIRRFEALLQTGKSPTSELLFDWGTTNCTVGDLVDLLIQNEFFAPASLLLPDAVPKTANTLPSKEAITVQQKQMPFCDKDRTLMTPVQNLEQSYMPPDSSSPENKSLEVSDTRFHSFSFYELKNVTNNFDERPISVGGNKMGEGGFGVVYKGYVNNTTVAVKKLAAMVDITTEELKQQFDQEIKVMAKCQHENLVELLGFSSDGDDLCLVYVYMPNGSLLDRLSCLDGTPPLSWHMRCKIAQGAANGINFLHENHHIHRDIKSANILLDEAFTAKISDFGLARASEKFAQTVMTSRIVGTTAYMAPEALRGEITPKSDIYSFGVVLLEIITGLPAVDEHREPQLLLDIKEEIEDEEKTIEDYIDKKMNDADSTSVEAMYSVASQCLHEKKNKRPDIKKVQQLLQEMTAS

| Structure (SMILES) | Ki [nM] |
| --- | --- |
| CC1(C)Cc2cc(NC(=O)c3cnn4cccnc34)c(C(N)=O)cc2O1 [Example 452, N-(6-carbamoyl-2,2-dimethyl-3H-benzofuran-5-yl)pyrazolo[1,5-a]pyrimidine-3-carboxamide] | 150 |
| C[C@@]1(CO)Cc2cc(NC(=O)c3cnn4cc(F)cnc34)c(N3CCN(CC(F)F)CC3)cc2O1 [Example 132, (S)—N-(6-(4-(2,2-Difluoroethyl)piperazin-1-yl)-2-(hydroxymethyl)-2-methyl-2,3-dihydrobenzofuran-5-yl)-6-fluoropyrazolo[1,5-a]pyrimidine-3-carboxamide] | 4.8 |
| CCOP(=O)(OCC)OCC1CCN(c2cc3c(cc2NC(=O)c2cnn4cccnc24)CC(C)(C)O3)CC1 [Example 145, [1-[2,2-Dimethyl-5-(pyrazolo[1,5-a]pyrimidine-3-carbonylamino)-3H-benzofuran-6-yl]-4-piperidyl]methyl diethyl phosphate] | 130 |
| COCCN1Cc2cc(NC(=O)c3cnn4cccnc34)c(N3CCOCC3)cc2C1=O [Example 178, N-[2-(2-methoxyethyl)-6-morpholino-1-oxo-isoindolin-5-yl]pyrazolo[1,5-a]pyrimidine-3-carboxamide] | 15 |
| C[C@]1(CO)Cc2cc(NC(=O)c3cnn4cc(F)cnc34)c(N3CCN(CC(F)F)CC3)cc2O1 [Example 133, (R)—N-(6-(4-(2,2-Difluoroethyl)piperazin-1-yl)-2-(hydroxymethyl)-2-methyl-2,3-dihydrobenzofuran-5-yl)-6-fluoropyrazolo[1,5-a]pyrimidine-3-carboxamide] | 4.1 |
| CC(C)(O)[C@H](F)CN1Cc2cc(NC(=O)c3cnn4cccnc34)c(N3CCC([C@@H](O)C(F)F)CC3)cc2C1=O (single isomer, unassigned) [Example 283] | 2 |
| C[C@@H](CN1Cc2cc(NC(=O)c3cnn4cccnc34)c(N3CCOCC3)cc2C1=O)N1CCOCC1 [Example 551, N-[6-morpholino-2-[(2S)-2-morpholinopropyl]-1-oxo-isoindolin-5-yl]pyrazolo[1,5-a]pyrimidine-3-carboxamide] | 2.9 |
| CN(C)c1cc2c(cc1NC(=O)c1cnn3cccnc13)CC(C)(C)O2 [Example 537, N-(6-(dimethylamino)-2,2-dimethyl-2,3-dihydrobenzofuran-5-yl)pyrazolo[1,5-a]pyrimidine-3-carboxamide] | 12 |
| C[C@@]1(CO)Cc2cc(NC(=O)c3cnn4cccnc34)c(N3Cc4cccnc4C3)cc2O1 [Example 420, (S)-N-(6-(5,7-dihydro-6H-pyrrolo[3,4-b]pyridin-6-yl)-2-(hydroxymethyl)-2-methyl-2,3-dihydrobenzofuran-5-yl)pyrazolo[1,5-a]pyrimidine-3-carboxamide] | 14 |
| CC(C)(O)[C@H](F)CN1Cc2cc(NC(=O)c3cnn4cc(C(N)=O)cnc34)c(N3CCOCC3)cc2C1=O [Example 286, N3-[2-[(2R)-2-Fluoro-3-hydroxy-3-methyl-butyl]-6-morpholino-1-oxo-isoindolin-5-yl]pyrazolo[1,5-a]pyrimidine-3,6-dicarboxamide] | 2 |
| Cc1nnc(CN2CCN(c3cc4c(cc3NC(=O)c3cnn5cccnc35)CC(C)(C)O4)CC2)o1 [Example 463, N-(2,2-dimethyl-6-(4-((5-methyl-1,3,4-oxadiazol-2-yl)methyl)piperazin-1-yl)-2,3-dihydrobenzofuran-5-yl)pyrazolo[1,5-a]pyrimidine-3-carboxamide] | 25 |
| CC(C)(O)[C@H](F)CN1Cc2cc(NC(=O)c3cnn4cccnc34)ccc2C1=O [Example 500, N-[2-[(2R)-2-Fluoro-3-hydroxy-3-methyl-butyl]-1-oxo-isoindolin-5-yl]pyrazolo[1,5-a]pyrimidine-3-carboxamide] | 84 |
| O=C(Nc1cc2c(cc1N1CCOCC1)C(=O)N(C[C@@H]1CCC[C@@H]1O)C2)c1cnn2cccnc12 [Example 559, N-[2-[[(1S,2S)-2-hydroxycyclopentyl]methyl]-6-morpholino-1-oxo-isoindolin-5-yl]pyrazolo[1,5-a]pyrimidine-3-carboxamide] | 2.2 |
| CC(C)N1Cc2cc(NC(=O)c3cnn4cccnc34)c(N3CCN(CC(N)=O)CC3)cc2C1=O [Example 272, N-[6-[4-(2-Amino-2-oxo-ethyl)piperazin-1-yl]-2-isopropyl-1-oxo-isoindolin-5-yl]pyrazolo[1,5-a]pyrimidine-3-carboxamide] | 4 |
| CC(C)(O)C(F)(F)CN1Cc2cc(NC(=O)c3cnn4cccnc34)c(N3CCOCC3)cc2C1=O [Example 270, N-[2-(2,2-Difluoro-3-hydroxy-3-methyl-butyl)-6-morpholino-1-oxo-isoindolin-5-yl]pyrazolo[1,5-a]pyrimidine-3-carboxamide] | 9.7 |
| CCN1CCC2(CC1)Cc1cc(NC(=O)c3cnn4cccnc34)c(N3CCOCC3)cc1O2 [Example 502, N-(1′-ethyl-6-morpholino-3H-spiro[benzofuran-2,4′-piperidin]-5-yl)pyrazolo[1,5-a]pyrimidine-3-carboxamide] | 5.8 |

More lines, now with the values ahead:

| Ki [nM] | Structure (SMILES) |
| --- | --- |
| 27 | CC1(C)Cc2cc(NC(=O)c3cnn4cccnc34)c(N3CC4COCC4C3)cc2O1 (stereo not drawn) [Example 191, N-[6-(1,3,3a,4,6,6a-hexahydrofuro[3,4-c]pyrrol-5-yl)-2,2-dimethyl-3H-benzofuran-5-yl]pyrazolo[1,5-a]pyrimidine-3-carboxamide] |
| 3.7 | CC1(C(F)F)Cc2cc(NC(=O)c3cnn4cccnc34)c(N3CCN(CC(F)F)CC3)cc2O1 (stereo not drawn) [Example 364, N-(6-(4-(2,2-Difluoroethyl)piperazin-1-yl)-2-(difluoromethyl)-2-methyl-2,3-dihydrobenzofuran-5-yl)pyrazolo[1,5-a]pyrimidine-3-carboxamide] |
| 16 | CC1(CO)CCc2cc(NC(=O)c3cnn4cccnc34)c(N3CCOCC3)cc2O1 (stereo not drawn) [Example 141, N-(2-(Hydroxymethyl)-2-methyl-7-morpholinochroman-6-yl)pyrazolo[1,5-a]pyrimidine-3-carboxamide] |
| 2.4 | O=C(Nc1cc2c(cc1N1CCC(CO)CC1)O[C@@](CO)(C(F)(F)F)C2)c1cnn2cccnc12 [Example 317, (S)-N-(2-(hydroxymethyl)-6-(4-(hydroxymethyl)piperidin-1-yl)-2-(trifluoromethyl)-2,3-dihydrobenzofuran-5-yl)pyrazolo[1,5-a]pyrimidine-3-carboxamide] |
| 13 | CC1(C)Cc2cc(NC(=O)c3cnn4cccnc34)c(N3CCC(C(N)=O)C3)cc2O1 (stereo not drawn) [Example 236, N-(6-(3-Carbamoylpyrrolidin-1-yl)-2,2-dimethyl-2,3-dihydrobenzofuran-5-yl)pyrazolo[1,5-a]pyrimidine-3-carboxamide] |
| 8 | O=C(Nc1cc2c(cc1N1CCC(CO)CC1)C(=O)N(CC(F)(F)F)C2)c1cnn2cccnc12 [Example 263] |
| 5.7 | C[C@@]1(CO)Cc2cc(NC(=O)c3cnn4cccnc34)c(N3CCC4(CCOC4)CC3)cc2O1 [Example 126, (S)—N-(2-(hydroxymethyl)-2-methyl-6-(2-oxa-8-azaspiro[4.5]decan-8-yl)-2,3-dihydrobenzofuran-5-yl)pyrazolo[1,5-a]pyrimidine-3-carboxamide] |
| 7.6 | C[C@@]1(CO)Cc2cc(NC(=O)c3cnn4cccnc34)c(N3CCC([C@@](C)(O)C(F)(F)F)CC3)cc2O1 [Example 411, N—((S)-2-(hydroxymethyl)-2-methyl-6-(4-((R)-1,1,1-trifluoro-2-hydroxypropan-2-yl)piperidin-1-yl)-2,3-dihydrobenzofuran-5-yl)pyrazolo[1,5-a]pyrimidine-3-carboxamide] |
